In the assay the test system is nude mice, LX-1 lung xenograft intrarenal, tumor weight T/C. Put plainly: NCI In Vivo Anticancer Drug Screen. Data for tumor model Human Lung LX-1 Xenograft (intrarenal inoculation) in NU/NU Swiss (nude) mice. The note with it: endpoint: mean tumor weight change, higher = larger tumour. The procedure:
The antitumor activity of compounds was measured in mice bearing transplantable tumors. Survival or tumor size were measured and the results are expressed as the measurement made in the treated group (T) divided by the measurement made in the vehicle treated control group (C). The tumor model used in this assay is Human Lung LX-1 Xenograft (intrarenal inoculation) in NU/NU Swiss (nude) mice
For orientation: A xenograft is tissue or cells of one species grown in another, often human tumour cells in immunodeficient mice.

[1] abbreviates: dose: 300.0 mg/kg/injection, schedule: Q04DX003 (sc), vehicle: saline with Tween-80.
The mark [2] stands for this setting: dose: 600.0 mg/kg/injection, schedule: Q04DX003 (sc), vehicle: saline with Tween-80.
The mark [3] stands for this setting: dose: 2400.0 mg/kg/injection, schedule: Q04DX003 (sc), vehicle: saline with Tween-80.
[4] abbreviates: dose: 1200.0 mg/kg/injection, schedule: Q04DX003 (sc), vehicle: saline with Tween-80.
Setting [5] is: dose: 50.0 mg/kg/injection, schedule: Q04DX003 (sc), vehicle: saline.
Where [6] appears, read: dose: 1.0 mg/kg/injection, schedule: Q01DX010 (sc), vehicle: saline.

Records with an inconclusive call do not appear.

As to `Nc1nc2ccc(NCc3ccc(C(=O)NC(CCC(=O)O)C(=O)O)cc3)cc2c(=O)[nH]1` (stereo not drawn), the T/C is, setting by setting: (dose: 100.0 mg/kg/injection, schedule: Q04DX003 (sc), vehicle: saline with Tween-80) 94 % of control; (dose: 200.0 mg/kg/injection, schedule: Q04DX003 (sc), vehicle: saline with Tween-80) 83 % of control; (dose: 400.0 mg/kg/injection, schedule: Q04DX003 (sc), vehicle: saline with Tween-80) 109 % of control; (dose: 800.0 mg/kg/injection, schedule: Q04DX003 (sc), vehicle: saline with Tween-80) 63 % of control.

On to `N#CCCN(C(=S)Nc1cccc(C(F)(F)F)c1)C1CCCCC1`, for which the T/C (dose: 300.0 mg/kg/injection, schedule: Q04DX003 (sc), vehicle: Klucel (hydroxypropylcellulose) (HPC)) was 60 % of control; the T/C (dose: 600.0 mg/kg/injection, schedule: Q04DX003 (sc), vehicle: Klucel (hydroxypropylcellulose) (HPC)) was 55 % of control; the T/C (dose: 1200.0 mg/kg/injection, schedule: Q04DX003 (sc), vehicle: Klucel (hydroxypropylcellulose) (HPC)) is 77 % of control; the T/C (dose: 2400.0 mg/kg/injection, schedule: Q04DX003 (sc), vehicle: Klucel (hydroxypropylcellulose) (HPC)) is 80 % of control.

`CC(=O)Nc1ccc(O)c(O)c1`: the T/C was 154 % of control under setting [1], 103 % of control under setting [2] and 51 % of control under setting [3].

`COCCCNC1=C(C#N)C(=O)NC(c2cccc([N+](=O)[O-])c2)S1` (stereo not drawn): the T/C reads like this: under setting [1], 109 % of control; under setting [2], 78 % of control; under setting [4], 124 % of control; under setting [3], 68 % of control.

For `COc1cccc2c1C(=O)c1c(O)c3c(c(O)c1C2=O)C[C@@](O)(/C(C)=N\O)C[C@@H]3OC1CC(N)C(O)C(C)O1` (stereo partly drawn), the T/C runs as follows: (dose: 25.0 mg/kg/injection, schedule: Q04DX003 (sc), vehicle: saline) 95 % of control; under setting [5], 76 % of control.

On to `Nc1ccc(Cl)cc1N`, for which the T/C (dose: 450.0 mg/kg/injection, schedule: Q04DX003 (sc), vehicle: saline with Tween-80) was 115 % of control and the T/C (dose: 900.0 mg/kg/injection, schedule: Q04DX003 (sc), vehicle: saline with Tween-80) was 92 % of control.

For the molecule `CC(C)[NH-].CC(C)[NH-].O.O.[Cl][Pt+2][Cl]`, the T/C by setting is: (dose: 3.12 mg/kg/injection, schedule: Q01DX010 (sc), vehicle: dextrose) 62 % of control; (dose: 6.25 mg/kg/injection, schedule: Q01DX010 (sc), vehicle: dextrose) 60 % of control; (dose: 12.5 mg/kg/injection, schedule: Q01DX010 (sc), vehicle: dextrose) 53 % of control; (dose: 25.0 mg/kg/injection, schedule: Q01DX010 (sc), vehicle: dextrose) 64 % of control.

In the case of `CCOC(=O)C(N)CSC(=O)NC` (stereo not drawn), the T/C is, setting by setting: under setting [5], 165 % of control; (dose: 400.0 mg/kg/injection, schedule: Q04DX003 (sc), vehicle: saline) 94 % of control.

As to `CC1(C)OCC2OC=CC(=O)C2O1` (stereo not drawn), the T/C under setting [1] was 89 % of control.

Consider `OCC12COCN1COC2`, for which the T/C is, setting by setting: (dose: 75.0 mg/kg/injection, schedule: Q04DX003 (sc), vehicle: saline) 102 % of control; (dose: 150.0 mg/kg/injection, schedule: Q04DX003 (sc), vehicle: saline) 115 % of control.

`O=c1cc(CCl)[nH]nc1CCl`: the T/C is 92 % of control (dose: 6.25 mg/kg/injection, schedule: Q01DX010 (sc), vehicle: saline with Tween-80); 55 % of control (dose: 12.5 mg/kg/injection, schedule: Q01DX010 (sc), vehicle: saline with Tween-80); 49 % of control (dose: 25.0 mg/kg/injection, schedule: Q01DX010 (sc), vehicle: saline with Tween-80); 106 % of control (dose: 50.0 mg/kg/injection, schedule: Q01DX010 (sc), vehicle: saline with Tween-80).

As for `O=C(Nc1cccc(Cl)c1)ON1C(=O)C2C(C1=O)C1(Cl)C(Cl)C(Cl)C2(Cl)C1(Cl)Cl` (stereo not drawn), the T/C under setting [1] was 81 % of control, the T/C under setting [2] was 85 % of control and the T/C under setting [4] was 83 % of control.

As for `CSc1nc(=O)[nH]nc1SCc1ccccc1`, the T/C was 101 % of control (dose: 100.0 mg/kg/injection, schedule: Q04DX003 (sc), vehicle: Klucel (hydroxypropylcellulose) (HPC)); 93 % of control (dose: 200.0 mg/kg/injection, schedule: Q04DX003 (sc), vehicle: Klucel (hydroxypropylcellulose) (HPC)); 64 % of control (dose: 400.0 mg/kg/injection, schedule: Q04DX003 (sc), vehicle: Klucel (hydroxypropylcellulose) (HPC)); 68 % of control (dose: 800.0 mg/kg/injection, schedule: Q04DX003 (sc), vehicle: Klucel (hydroxypropylcellulose) (HPC)).

As for `Nc1nc([Se])c2ncn(C3OC(CO)C(O)C3O)c2n1` (stereo not drawn), the T/C under setting [6] is 264 % of control; the T/C (dose: 2.0 mg/kg/injection, schedule: Q01DX010 (ip), vehicle: saline) is 46 % of control; the T/C (dose: 4.0 mg/kg/injection, schedule: Q01DX010 (ip), vehicle: saline) was 31 % of control; the T/C (dose: 6.66 mg/kg/injection, schedule: Q04DX003 (ip), vehicle: saline) is 82 % of control; the T/C (dose: 6.66 mg/kg/injection, schedule: Q04DX003 (sc), vehicle: saline) was 45 % of control; the T/C (dose: 8.0 mg/kg/injection, schedule: Q01DX010 (ip), vehicle: saline) is 41 % of control. For the same molecule, the T/C (dose: 13.33 mg/kg/injection, schedule: Q04DX003 (ip), vehicle: saline) is 121 % of control; the T/C (dose: 13.33 mg/kg/injection, schedule: Q04DX003 (sc), vehicle: saline) is 62 % of control; the T/C (dose: 16.0 mg/kg/injection, schedule: Q01DX010 (ip), vehicle: saline) was 61 % of control; the T/C (dose: 16.0 mg/kg/injection, schedule: Q01DX010 (sc), vehicle: saline) was 35 % of control; the T/C (dose: 26.65 mg/kg/injection, schedule: Q04DX003 (ip), vehicle: saline) is 91 % of control; the T/C (dose: 26.65 mg/kg/injection, schedule: Q04DX003 (sc), vehicle: saline) was 95 % of control. Besides, under “dose: 53.3 mg/kg/injection, schedule: Q04DX003 (ip), vehicle: saline”, the T/C was 44 % of control.

In the case of `CNc1cccnc1/C=N/NC(N)=S`, the T/C under setting [1] was 94 % of control, the T/C under setting [2] is 57 % of control, the T/C under setting [4] was 67 % of control and the T/C under setting [3] is 75 % of control.

As for `CC[C@H](CC[C@@H](C)C1CC[C@H]2[C@@H]3CC=C4C[C@@H](OP(=O)(N5CC5)N5CC5)CC[C@]4(C)[C@H]3CC[C@]12C)C(C)C` (stereo partly drawn), the T/C runs as follows: under setting [1], 57 % of control; under setting [2], 78 % of control; under setting [4], 83 % of control; under setting [3], 80 % of control.

In the case of `CC(C)[C@](O)(C(=O)OCC1=CCN2CC[C@@H](O)[C@@H]12)[C@H](C)O`, the T/C was 80 % of control (dose: 150.0 mg/kg/injection, schedule: Q04DX003 (sc), vehicle: water); 91 % of control (dose: 300.0 mg/kg/injection, schedule: Q04DX003 (sc), vehicle: water); 82 % of control (dose: 600.0 mg/kg/injection, schedule: Q04DX003 (sc), vehicle: water); 70 % of control (dose: 1200.0 mg/kg/injection, schedule: Q04DX003 (sc), vehicle: water).

In the case of `C[N+](C)(C)c1ncnc2c1ncn2C1CCCO1` (stereo not drawn), the T/C by setting is: (dose: 0.25 mg/kg/injection, schedule: Q01DX010 (sc), vehicle: saline) 65 % of control; under setting [6], 106 % of control; (dose: 2.0 mg/kg/injection, schedule: Q01DX010 (sc), vehicle: saline) 94 % of control; (dose: 12.5 mg/kg/injection, schedule: Q01DX010 (sc), vehicle: saline) 176 % of control; (dose: 25.0 mg/kg/injection, schedule: Q01DX010 (sc), vehicle: saline) 120 % of control.

On to `Cc1c(N)nc(C(CC(N)=O)NCC(N)C(N)=O)nc1C(=O)NC(C(=O)NC(C)C(O)C(C)C(=O)NC(C(=O)NCCc1nc(-c2nc(C(=O)NCCCNCCCc3ccccn3)cs2)cs1)C(C)O)C(OC1OC(CO)C(O)C(O)C1OC1OC(CO)C(O)C(OC(N)=O)C1O)c1cnc[nH]1` (stereo not drawn), for which the T/C runs as follows: (dose: 3.0 mg/kg/injection, schedule: Q01DX010 (sc), vehicle: water) 16 % of control; (dose: 12.0 mg/kg/injection, schedule: Q01DX010 (sc), vehicle: water) -82 % of control.

`COc1cc(Cl)ccc1C`: the T/C under setting [1] was 116 % of control, the T/C under setting [2] is 88 % of control, the T/C under setting [4] was 100 % of control and the T/C under setting [3] was 121 % of control.

Consider `OC1CCCC2CCCNC12` (stereo not drawn), for which the T/C runs as follows: (dose: 37.5 mg/kg/injection, schedule: Q04DX003 (sc), vehicle: saline with Tween-80) 81 % of control; (dose: 75.0 mg/kg/injection, schedule: Q04DX003 (sc), vehicle: saline with Tween-80) 93 % of control; (dose: 150.0 mg/kg/injection, schedule: Q04DX003 (sc), vehicle: saline with Tween-80) 75 % of control.

The values above are taken from PubChem BioAssay AID264 (DTP/NCI, 2004).
